These results are taken from patent US6528525B1, “Amidocarboxylic acid derivatives” (Sankyo Company, Limited, priority 1998, dated 2003).

The structures appear in SMILES notation.

The test system of one experiment is hyperglycemic male KK mice. Description: Action in depressing blood glucose (Method 1). It is filed as in vivo. The following applies: Mus musculus, po, 72 h, compound admixed with powder feed at 0.01% (ca. 10 mg/kg/day) for three days, plasma glucose vs control group, read-out: Rate of hypoglycemic activity (%) (blood glucose depression rate). How it is done: Action in Depressing Blood Glucose (Method 1)
Each compound, admixed with powder feed F-2 (Funabashi Farm) was administered to hyperglycemic male KK mice each having a body weight of 40 g or more at a rate of 0.01% (ca. 10 mg/kg/day) for three days. Meanwhile, mice of a control group were fed with the powder feed only. Then, a blood sample was collected from the caudal vein of each mouse under no anesthesia and centrifuged. The blood glucose in the plasma thus obtained was determined using Glucoloader F (Product of A & T Co., Ltd.).
The blood glucose depression rate were estimated from the following equation:
Blood glucose depression rate (%)=[(Blood glucose in Control group−Blood glucose in administered group)/Blood glucose in Control group]×100
Regarding `CCCC(Cc1ccc(OCCNC(=O)c2ccc(-c3ccccn3)cc2)cc1)C(=O)O` (stereo not shown) [Example 74, 2-Propyl-3-[4-[2-(4-pyridine-2-ylbenzoylamino)ethoxy]phenyl]propionic acid], the inhibition in vivo at 10 mg/kg/day came to 60%.

In the case of `CC(C)c1ccc(OC(Cc2ccc(OCCNC(=O)c3ccc(-c4ccc(F)cc4)nc3)cc2)C(=O)O)cc1` (stereo not shown) [Example 101, 3-[4-[2-[2-(4-Fluorophenyl)pyridine-5-carbonylamino]ethoxy]phenyl]-2-(4-isopropylphenoxy)propionic acid], the inhibition in vivo at 10 mg/kg/day is 51%.

Take `O=C(NCCOc1ccc(CC(Oc2cc(F)c(F)c(F)c2)C(=O)O)cc1)c1ccc(-c2ccccn2)cc1` (stereo not shown) [Example 143, 2-(3,4,5-Trifluorophenoxy)-3-[4-[2-(4-pyridine-2-ylbenzoylamino)ethoxy]phenyl]propionic acid]: the inhibition in vivo at 10 mg/kg/day turned out to be 43%.

With `COC(=O)C(Cc1ccc(OCCNC(=O)c2ccc(-c3ccccn3)cc2)cc1)Sc1ccccc1` (stereo not shown) [Example 152, Methyl 2-phenylthio-3-[4-[2-(4-pyridine-2-ylbenzoylamino)ethoxy]phenyl]propionate], the inhibition in vivo at 10 mg/kg/day was 58%.

As for `O=C(NCCOc1ccc(CC(Oc2ccc(F)cc2)C(=O)O)cc1)c1ccc(-c2ccccn2)cc1` (stereo not shown) [Example 119, 2-(4-Fluorophenoxy)-3-[4-[2-(4-pyridine-2-ylbenzoylamino)ethoxy]phenyl]propionic acid], the inhibition in vivo at 10 mg/kg/day is 49%.

For `CC(C)c1ccc(OC(Cc2ccc(OCCNC(=O)c3ccc(-c4ccc(C(F)(F)F)cn4)cc3)cc2)C(=O)O)cc1` (stereo not shown) [Example 107, 2-(4-isopropylphenoxy)-3-[4-[2-[4-(3-trifluoromethylpyridine-6-yl)benzoylamino]ethoxy]phenyl]propionic acid], the inhibition in vivo at 10 mg/kg/day is 38%.

In the case of `CC(C)c1ccc(O[C@@H](Cc2ccc(OCCNC(=O)c3ccc(-c4ccccn4)cc3)cc2)C(=O)O)cc1` [Example 104, (S)-2-(4-Isopropylphenoxy)-3-[4-[2-(4-pyridine-2-ylbenzoylamino)ethoxy]phenyl]propionic acid], the inhibition in vivo at 10 mg/kg/day came to 73%.

Consider `O=C(NCCOc1ccc(CC(Oc2ccc(F)c(F)c2)C(=O)O)cc1)c1ccc(-c2ccccn2)cc1` (stereo not shown) [Example 141, 2-(3,4-Difluorophenoxy)-3-[4-[2-(4-pyridine-2-ylbenzoylamino)ethoxy]phenyl]propionic acid], for which the inhibition in vivo at 10 mg/kg/day came to 27%.

With `CC(C)c1ccc(OC(Cc2ccc(OCCNC(=O)c3ccc(-c4ccccc4)nc3)cc2)C(=O)O)cc1` (stereo not shown) [Example 97, 2-(4-Isopropylphenoxy)-3-[4-[2-(2-phenylpyridine-5-carbonylamino)ethoxy]phenyl]propionic acid], the inhibition in vivo at 10 mg/kg/day was 66%.

With `COc1ccc(-c2ccc(C(=O)NCCOc3ccc(CC(Oc4ccc(C(C)C)cc4)C(=O)O)cc3)cc2)nc1` (stereo not shown) [Example 111, 2-(4-Isopropylphenoxy)-3-[4-[2-[4-(3-methoxypyridine-6-yl)-benzoylamino]ethoxy]phenyl]propionic acid], the inhibition in vivo at 10 mg/kg/day turned out to be 70%.

As to `O=C(NCCOc1ccc(CC(CCCc2ccccc2)C(=O)O)cc1)c1ccc(-c2ccccn2)cc1` (stereo not shown) [Example 4, 2-(3-phenylpropyl)-3-[4-[2-(4-pyridine-2-ylbenzoylamino)ethoxy]phenyl]propionic acid], the inhibition in vivo at 10 mg/kg/day is 15%.

Consider `O=C(NCCOc1ccc(CC(Oc2ccccc2)C(=O)O)cc1)c1ccc(-c2ccc(C(F)(F)F)cc2)cc1` (stereo not shown) [Example 82, 3-[4-[2-(4′-Trifluoromethylbiphenyl-4-carbonylamino)ethoxy]phenyl]-2-phenoxypropionic acid], for which the inhibition in vivo at 10 mg/kg/day came to 32%.

On to `O=C(NCCOc1ccc(CC(Oc2ccc(Cl)cc2)C(=O)O)cc1)c1ccc(-c2ccccn2)cc1` (stereo not shown) [Example 121, 2-(4-Chlorophenoxy)-3-[4-[2-(4-pyridine-2-ylbenzoylamino)ethoxy]phenyl]propionic acid], for which the inhibition in vivo at 10 mg/kg/day worked out at 60%.

`Cc1ccc(OC(Cc2ccc(OCCNC(=O)c3ccc(-c4ccccn4)cc3)cc2)C(=O)O)cc1` (stereo not shown) [Example 115, 2-(4-Methylphenoxy)-3-[4-[2-(4-pyridine-2-ylbenzoylamino)ethoxy]phenyl]propionic acid]: the inhibition in vivo at 10 mg/kg/day amounted to 66%.

Turning to `COc1ccc(OC(Cc2ccc(OCCNC(=O)c3ccc(-c4ccccn4)cc3)cc2)C(=O)O)cc1` (stereo not shown) [Example 125, 2-(4-Methoxyphenoxy)-3-[4-[2-(4-pyridine-2-ylbenzoylamino)ethoxy]phenyl]propionic acid], the inhibition in vivo at 10 mg/kg/day turned out to be 54%.

For the compound `CCCCC(Cc1ccc(OCCNC(=O)c2ccc(OC)nc2)cc1)C(=O)O` (stereo not shown) [Example 52, 2-Butyl-3-[4-[2-(2-methoxypyridine-5-carbonylamino)ethoxy]phenyl]propionic acid], the inhibition in vivo at 10 mg/kg/day turned out to be 20%.

For `O=C(NCCOc1ccc(CC(Oc2ccccc2)C(=O)O)cc1)c1ccc(-c2ccc(Cl)cc2)cc1` (stereo not shown) [Example 80, 3-[4-[2-(4′-Chlorobiphenyl-4-carbonylamino)ethoxy]phenyl]-2-phenoxypropionic acid], the inhibition in vivo at 10 mg/kg/day worked out at 50%.

`O=C(NCCOc1ccc(CC(Oc2ccc(OC(F)(F)F)cc2)C(=O)O)cc1)c1ccc(-c2ccccn2)cc1` (stereo not shown) [Example 127, 3-[4-[2-(4-Pyridine-2-ylbenzoylamino)ethoxy]phenyl]-2-(4-trifluoromethoxyphenoxy)propionic acid]: the inhibition in vivo at 10 mg/kg/day was 56%.

Take `O=C(NCCOc1ccc(CC(Oc2cccc(F)c2)C(=O)O)cc1)c1ccc(-c2ccccn2)cc1` (stereo not shown) [Example 137, 2-(3-Fluorophenoxy)-3-[4-[2-(4-pyridine-2-ylbenzoylamino)ethoxy]phenyl]propionic acid]: the inhibition in vivo at 10 mg/kg/day amounted to 49%.

`CCCCC(Cc1ccc(OCCNC(=O)c2ccc(-c3ccccc3)cc2)cc1)C(=O)O` (stereo not shown) [Example 22, 3-[4-[2-(Biphenyl-4-carbonylamino)ethoxy]phenyl]-2-butylpropionic acid]: the inhibition in vivo at 10 mg/kg/day was determined as 17%.

Regarding `CC(C)c1ccc(OC(C)(Cc2ccc(OCCNC(=O)c3ccc(-c4ccccn4)cc3)cc2)C(=O)O)cc1` (stereo not shown) [Example 18, 2-(4-Isopropylphenoxy)-2-methyl-3-[4-[2-(4-pyridine-2-ylbenzoylamino)ethoxy]phenyl]propionic acid], the inhibition in vivo at 10 mg/kg/day came to 68%.

With `CCCCC(Cc1ccc(OCCNC(=O)c2ccc(-c3ccccc3OC)cc2)cc1)C(=O)O` (stereo not shown) [Example 43, 2-Butyl-3-[4-[2-(2′-methoxybiphenyl-4-carbonylamino)ethoxy]phenyl]propionic acid], the inhibition in vivo at 10 mg/kg/day was determined as 20%.

In the case of `O=C(NCCOc1ccc(CC(Oc2ccccc2)C(=O)O)cc1)c1ccc(-c2ccccc2)cc1` (stereo not shown) [Example 76, 3-[4-[2-(Biphenyl-4-carbonylamino)ethoxy]phenyl]-2-phenoxypropionic acid], the inhibition in vivo at 10 mg/kg/day is 50%.

`CCOC(Cc1ccc(OCCNC(=O)c2ccc(-c3ccccn3)cc2)cc1)C(=O)O` (stereo not shown) [Example 2, Sodium 2-ethoxy-3-[4-[2-(4-pyridine-2-ylbenzoylamino)ethoxy]phenyl]propionate]: the inhibition in vivo at 10 mg/kg/day came to 43%.

The same experiment, now with this note: compound admixed with powder feed at 0.01% (ca. 10 mg/kg/day) for three days, plasma glucose vs control group.
For the compound `O=C(NCCOc1ccc(CC(Oc2c(F)c(F)c(F)c(F)c2F)C(=O)O)cc1)c1ccc(-c2ccccn2)cc1` (stereo not shown) [Example 145, 2-Pentafluorophenoxy-3-[4-[2-(4-pyridine-2-ylbenzoylamino)ethoxy]phenyl]propionic acid], the “Rate of hypoglycemic activity (%) (blood glucose depression rate)” value turned out to be 28%.
